Experiments:
[1] = system: plants; test: Consideration of Use Examples 1 to 6: plant weight index versus no iron agent; assay type: in vivo; settings: no irrigation with an iron agent = 100, based on Use Examples 1 to 6
Method: (§1) An aqueous solution of sodium ferrous citrate to be irrigated was prepared by adding 150 g of citric acid to 850 ml of tap water to produce citric acid water, then adding thereto 25 g of reduced iron powder, followed by stirring, and then adding to the resultant mixture 150 g of sodium hydrogen carbonate, followed by stirring and mixing.
The following consideration is made based on the results of Use Examples 1 to 6.
When the index in the case of no irrigation with an iron agent is 100, with respect to the plant's aboveground weight, it is 116 in the case of the irrigation with the aqueous solution of iron citrate and 209 in the case of the irrigation with the aqueous solution of sodium ferrous citrate, and with respect to the plant's root weight, it is 134 in the case of the irrigation with the aqueous solution of iron citrate and 464 in the case of the irrigation with the aqueous solution of sodium ferrous citrate.

[2] = system: parsley; test: Use Example 5: growth of parsley irrigated with iron agent; assay type: in vivo; settings: irrigation once a week, after 19 days of cultivation, in comparison with the other plants
Method: as §1
(§2) Plants not irrigated with an iron agent (left side of the figure), plants irrigated with an aqueous solution of iron citrate (center of the figure), and plants irrigated with an aqueous solution of sodium citrate (right side of the figure) as the iron supply preparation for growth of the present application were provided, and the plants were cultivated while performing irrigation on the plants at a rate of once a week, and the growth conditions after 19 days of cultivation are shown. Each of the aqueous solution of iron citrate and the aqueous solution of sodium ferrous citrate was diluted 10000 times so that the total iron content was 15000 ppm, and the Fe^2+ content was 3000 ppm for iron citrate and 12500 ppm for sodium ferrous citrate.

[3] = system: okra; test: Use Example 3: growth of okra irrigated with iron agent; assay type: in vivo; settings: irrigation once a week, after 19 days of cultivation, in comparison with the other plants
Method: as §1, §2

[4] = system: komatsuna (Japanese mustard spinach); test: Use Example 2: growth of komatsuna irrigated with iron agent; assay type: in vivo; settings: irrigation once a week, after 23 days of cultivation, in comparison with the other plants
Method: as §1
as §2, with “23” for “19”

[5] = system: molokheiya; test: Use Example 1: growth of molokheiya irrigated with iron agent; assay type: in vivo; settings: irrigation once a week, after 30 days of cultivation, in comparison with the other plants (no iron agent, iron citrate)
Method: as §1
as §2, with “30” for “19”

[6] = system: red leaf lettuce; test: Use Example 4: growth of red leaf lettuce irrigated with iron agent; assay type: in vivo; settings: irrigation once a week, after 19 days of cultivation, in comparison with the other plants
Method: as §1, §2

[7] = system: Italian parsley; test: Use Example 6: growth of Italian parsley irrigated with iron agent; assay type: in vivo; settings: irrigation once a week, after 19 days of cultivation, in comparison with the other plants
Method: as §1, §2

[8] = Change of Fe2+ ion concentration of the aqueous solution in the production process; assay type: physicochemical; settings: iron mixed with the citrate solution while stirring, FIGS. 1 to 4
Method: The aqueous solution of iron citrate is prepared by any one of the following methods: a method in which citric acid, solid iron and water are stirred and mixed together; a method in which solid iron is added to citric acid having been dissolved in water, followed by stirring and mixing; and a method in which solid iron and citric acid powder are added to a required amount of citric acid having been dissolved in water, followed by stirring and mixing while, if necessary, heating. To the thus obtained aqueous solution of iron citrate is mixed sodium hydrogen carbonate while, if necessary, heating, thereby producing an aqueous solution of sodium ferrous citrate. By the addition of sodium hydrogen carbonate, the aqueous solution of sodium ferrous citrate has been alkalized to have a pH value of from 5 to 8.
FIGS. 2 to 4 respectively show the change of the Fe^2+ ion concentration of aqueous iron agent solutions 1 to 3 for growth, each of which is produced by the above-mentioned method. […] Therefore, it is judged that the aqueous iron citrate solution is not suitable as an iron agent for growth.
In the cases of aqueous sodium ferrous citrate solutions 1 to 3 shown in FIGS. 2 to 4, the Fe^2+ ion concentration is confirmed to increase, differing from the case of the aqueous iron citrate solution shown in FIG. 1. […]

Row | Substance | index of the plant's aboveground weight [1] | index of the plant's root weight [1] | rooting [2] | weight of the aboveground part [2] | rooting [3] | weight of the aboveground part [3] | rooting [4] | weight of the aboveground part [4] | rooting [5] | weight of the aboveground part [5] | rooting [6] | weight of the aboveground part [6] | rooting [7] | weight of the aboveground part [7] | change of the Fe^2+ ion concentration of the aqueous solution [8]
1 | sodium ferrous citrate | 209 | 464 | improvement | increase | improvement | increase | improvement | increase | improvement | increase | improvement | increase | improvement | increase | –
2 | iron citrate [reference compound] | 116 | 134 | – | – | – | – | – | – | – | – | – | – | – | – | not confirmed to increase

Reference: US20260256145A1, “IRON AGENT FOR GROWING ANIMALS AND PLANTS, METHOD FOR PRODUCING THE SAME, AND IRON SUPPLY PREPARATION FOR GROWING ANIMALS AND PLANTS” (Sobue Clay Co., Ltd., priority 2023, published 2026)
